Measured values taken from patent EP2982368A1, “Small molecule compounds displacing focal adhesion core components” (Universität Konstanz, priority 2014, dated 2016).

Columns and labels:
FAK/Paxillin = target: T1, FAK/Paxillin (Mus musculus, UniProt P34152+Q8VI36); test: FAK/Paxillin displacement by structurally related compounds (FootLocker series, confocal microscopy); assay type: cell-based; set-up: key to Activtiy (activity towards FAK/Paxillin displacement): ++ indicates displacing effect at 5 µM; + at 20 µM; - indicates no observed effect
T1 construct: expressed in transfected cells; host or cells: mouse fibroblasts stably expressing GFP-FAK
Experimental: To determine whether compounds structurally related to Mb31 and Mb36 are likewise suitable to interfere with FAK localization at focal adhesions, mouse fibroblasts stably expressing GFP-FAK were treated for 30 min with 1, 10 or 20 µM of the following compounds: trans-3-hydroxy-β-nitrostyrene (THBN), trans-4-Chloro-β-nitrostyrene (T4CN), trans-β-nitrostyrene (TBN), 4-chlorocinnamic acid (4CA), and trans-3-(4-bromothiophen-2-yl)acrylic acid (T34BA) (Figures 16 and 17). The cells were analyzed by confocal microscopy for GFP-FAK localization. DMSO treatment served as a vehicle control. […] Additional substituents at the aromatic structures, such as halogen atoms or hydroxy groups may contribute to the reactivity of the compound, but are not essential. Based on these findings, the inventors have extended their structure activity-relationship studies and synthesized additional related compounds, which, similar to Mb31, displace FAK and paxillin at concentrations below 10µM (++), displace FAK and paxillin at concentrations above 10 µM (+), or lack FAK and paxillin displacing activity (-). All these substances were then also nicknamed in the FLocker terminology, resulting in FLocker1 - FLocker24 (Table 2). Table 2: Overview of FootLocker nomenclature, their chemical notation/structure and the activity towards FAK/Paxillin displacement

[1] = system: MDA-MB-231 breast cancer cells; test: In vitro wound healing assay; assay type: cell-based, human; settings: 3 µM, 25 h, serum-containing growth medium
Experimental: Image J was used to automatically quantify FAK-containing focal adhesions due to local maxima of fluorescence intensity in the GFP-channel (5 to 70 pixel). The number of cells was automatically counted in the Hoechst channel. To test reproducibility of the system 40 control wells were quantified wherein four positions for each well were imaged. […] GFP-FAK mouse embryonic fibroblasts were seeded on fibronectin and incubated for 1 h with the indicated concentrations of the small compounds, respectively. […] GFP-FAK mouse embryonic fibroblasts were seeded on fibronectin and serum-starved overnight. The indicated concentrations of Mb31 were applied for 30 min. Cells were lysed and analyzed for paxillin and FAK protein level as well as FAK Tyr397 phosphorylation. […] The purified kinase domain of FAK was incubated with increasing amounts of Mb31 for 1 h at 30°C together with poly-Glu-Tyr as a FAK substrate. […] Serum-starved GFP-FAK mouse embryonic fibroblasts were stimulated with normal growth medium and incubated for 5 h with the indicated concentrations of the small molecule compounds, respectively. Cell viability was assessed by MTT assay. […] GFP-FAK MEFs were seeded on fibronectin and serum-starved overnight. Migration was stimulated by replacing the medium with normal growth medium. Migration of single cells was tracked for 8 h in 30 min intervals. Migration was recorded from cells that were cultured without serum (A), with serum (B) or with serum in the presence of 3 µM Mb31 (C). […] (A) GFP-FAK MEFs were seeded and serum-starved as in Figure 10. Cell migration was stimulated with normal growth medium and single cells were tracked for 5 h. (B) Mb31 was added and the same cells were tracked for additional 5 h. (C) Mean velocities of differently treated cells were plotted over time. […] NIH-v-Src fibroblasts were seeded on 2 µg/ml FN in DMEM/0.5%BSA and stimulated with 10 ng/ml EGF or kept unstimulated. […] Mouse embryonic fibroblasts (MEFs) were transfected with talin-mCherry and talin dynamics analyzed in focal adhesions using fluorescence recovery after photobleaching (FRAP). Cells were left untreated (A) or treated with 10 µM of Mb31 (B). In untreated cells, the mCherry intensity recovered, indicating replacement of bleached by non-bleached talin and therefore turnover of talin at focal adhesions. […] (C) Wound closure was microscopically analyzed and evaluated using ImageJ software.
To determine if the migration of transformed cells can be blocked by FLocker1 and related compounds, human breast carcinoma cells (MDA-MB-231) were used in in vitro wound healing assays. […] The ability of the cells to migrate and close the wound space was monitored by microscopy and quantified (Figure 18B and C).

NIH-v-Src fibroblasts = test: EGF-stimulated cell migration of transformed cells; assay type: cell-based; settings: 10 ng/ml EGF, tracked 6 h before and 6 h after addition
Experimental: Image J was used to automatically quantify FAK-containing focal adhesions due to local maxima of fluorescence intensity in the GFP-channel (5 to 70 pixel). The number of cells was automatically counted in the Hoechst channel. To test reproducibility of the system 40 control wells were quantified wherein four positions for each well were imaged. […] GFP-FAK mouse embryonic fibroblasts were seeded on fibronectin and incubated for 1 h with the indicated concentrations of the small compounds, respectively. […] GFP-FAK mouse embryonic fibroblasts were seeded on fibronectin and serum-starved overnight. The indicated concentrations of Mb31 were applied for 30 min. Cells were lysed and analyzed for paxillin and FAK protein level as well as FAK Tyr397 phosphorylation. […] The purified kinase domain of FAK was incubated with increasing amounts of Mb31 for 1 h at 30°C together with poly-Glu-Tyr as a FAK substrate. […] Serum-starved GFP-FAK mouse embryonic fibroblasts were stimulated with normal growth medium and incubated for 5 h with the indicated concentrations of the small molecule compounds, respectively. Cell viability was assessed by MTT assay. […] GFP-FAK MEFs were seeded on fibronectin and serum-starved overnight. Migration was stimulated by replacing the medium with normal growth medium. Migration of single cells was tracked for 8 h in 30 min intervals. Migration was recorded from cells that were cultured without serum (A), with serum (B) or with serum in the presence of 3 µM Mb31 (C). […] (A) GFP-FAK MEFs were seeded and serum-starved as in Figure 10. Cell migration was stimulated with normal growth medium and single cells were tracked for 5 h. […] Mouse embryonic fibroblasts (MEFs) were transfected with talin-mCherry and talin dynamics analyzed in focal adhesions using fluorescence recovery after photobleaching (FRAP). […] (C) Wound closure was microscopically analyzed and evaluated using ImageJ software.
To further determine whether Mb31 interferes with cell motility, GFP-FAK MEFs were serum-stimulated and migration was quantified on a single cell basis (Figures 11 and 12). […]

T1 sequence (P34152 whole entry): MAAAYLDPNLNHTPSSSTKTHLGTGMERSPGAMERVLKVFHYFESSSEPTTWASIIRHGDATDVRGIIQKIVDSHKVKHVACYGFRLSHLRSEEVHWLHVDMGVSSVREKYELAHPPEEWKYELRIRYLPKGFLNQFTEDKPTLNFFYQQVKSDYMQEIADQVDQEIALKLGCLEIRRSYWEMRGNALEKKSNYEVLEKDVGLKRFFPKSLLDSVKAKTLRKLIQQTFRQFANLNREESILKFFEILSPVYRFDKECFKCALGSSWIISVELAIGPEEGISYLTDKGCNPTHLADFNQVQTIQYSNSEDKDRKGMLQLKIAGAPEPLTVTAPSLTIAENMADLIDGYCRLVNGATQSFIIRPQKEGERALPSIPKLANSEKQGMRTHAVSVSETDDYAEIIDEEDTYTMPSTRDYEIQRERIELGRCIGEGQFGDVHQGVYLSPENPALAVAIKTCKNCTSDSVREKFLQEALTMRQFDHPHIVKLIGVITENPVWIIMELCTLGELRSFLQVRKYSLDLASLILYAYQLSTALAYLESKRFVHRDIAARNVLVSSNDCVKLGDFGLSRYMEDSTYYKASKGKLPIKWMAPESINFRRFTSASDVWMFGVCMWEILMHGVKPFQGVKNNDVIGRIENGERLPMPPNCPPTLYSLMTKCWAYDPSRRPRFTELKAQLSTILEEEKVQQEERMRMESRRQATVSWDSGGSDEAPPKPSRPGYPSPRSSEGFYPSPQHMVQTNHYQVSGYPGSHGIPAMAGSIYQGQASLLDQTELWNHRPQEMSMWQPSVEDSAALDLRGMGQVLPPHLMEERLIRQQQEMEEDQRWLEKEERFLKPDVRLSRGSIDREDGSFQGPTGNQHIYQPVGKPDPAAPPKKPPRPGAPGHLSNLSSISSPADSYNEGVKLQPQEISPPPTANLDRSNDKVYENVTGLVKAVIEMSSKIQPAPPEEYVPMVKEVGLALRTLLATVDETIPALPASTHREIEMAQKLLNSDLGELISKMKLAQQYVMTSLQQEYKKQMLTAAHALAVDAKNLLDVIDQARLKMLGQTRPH
T1 sequence (Q8VI36 whole entry): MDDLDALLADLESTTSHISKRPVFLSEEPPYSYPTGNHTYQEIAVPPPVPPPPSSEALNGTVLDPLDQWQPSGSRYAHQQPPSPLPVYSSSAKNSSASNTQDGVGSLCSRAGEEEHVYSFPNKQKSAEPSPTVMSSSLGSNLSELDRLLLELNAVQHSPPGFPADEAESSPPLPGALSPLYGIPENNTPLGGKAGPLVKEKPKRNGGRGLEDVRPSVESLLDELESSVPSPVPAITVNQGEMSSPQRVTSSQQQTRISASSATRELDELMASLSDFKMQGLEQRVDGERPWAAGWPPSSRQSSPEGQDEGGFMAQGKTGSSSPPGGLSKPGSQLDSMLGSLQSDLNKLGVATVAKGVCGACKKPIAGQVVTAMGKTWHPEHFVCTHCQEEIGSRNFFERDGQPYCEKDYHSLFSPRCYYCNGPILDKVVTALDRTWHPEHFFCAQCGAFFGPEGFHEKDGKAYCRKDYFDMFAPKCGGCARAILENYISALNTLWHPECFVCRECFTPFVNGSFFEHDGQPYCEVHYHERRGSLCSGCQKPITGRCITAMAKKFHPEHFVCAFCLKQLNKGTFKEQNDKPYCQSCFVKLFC

Compound | Activtiy (activity towards FAK/Paxillin displacement) (FAK/Paxillin) | other results
O=[N+]([O-])/C=C/c1cccc(O)c1 [FootLocker 3, (E)-3-(2-nitrovinyl)phenol] |  | compounds showing the most prominent effect on protein-protein interactions at focal adhesion site (FAK/Paxillin): most prominent effect; disruption of protein-protein interactions at focal adhesion site (FAK/Paxillin): efficiently disrupt protein-protein interactions at focal adhesion site; migration of cancer cells / wound closure [1]: retarded the migration of the cancer cells
O=[N+]([O-])/C=C/c1ccccc1F [FootLocker 9, (E)-1-fluoro-2-(2-nitrovinyl) benzene] |  | compounds showing the most prominent effect on protein-protein interactions at focal adhesion site (FAK/Paxillin): most prominent effect; disruption of protein-protein interactions at focal adhesion site (FAK/Paxillin): efficiently disrupt protein-protein interactions at focal adhesion site; migration of cancer cells / wound closure [1]: retarded the migration of the cancer cells
O=[N+]([O-])/C=C/c1ccc(F)cc1 [FootLocker 14, (E)-1-fluoro-4-(2-nitrovinyl)benzene] |  | compounds showing the most prominent effect on protein-protein interactions at focal adhesion site (FAK/Paxillin): most prominent effect; disruption of protein-protein interactions at focal adhesion site (FAK/Paxillin): efficiently disrupt protein-protein interactions at focal adhesion site; migration of cancer cells / wound closure [1]: retarded the migration of the cancer cells
O=C(O)/C=C/c1cc(Br)cs1 [FootLocker 24, trans-3-(4-Bromothiophen-2-yl)acrylic acid, reference compound] |  | FAK displacing ability (FAK/Paxillin; GFP-FAK mouse fibroblasts, 30 min, 1, 10 or 20 µM): without FAK displacing ability; migration of EGF-stimulated cells (NIH-v-Src fibroblasts): no effect
CN(c1ccccc1CNc1nc(Nc2ccc3c(c2)CC(=O)N3)ncc1C(F)(F)F)S(C)(=O)=O [PF431396] |  | migration of EGF-stimulated cells (NIH-v-Src fibroblasts): efficiently inhibit the migration
O=[N+]([O-])/C=C/c1ccccc1O [compound 8] | + (+ at 20 µM) | 
O=[N+]([O-])/C=C/c1ccccc1F [compound 9] | ++ (++ indicates displacing effect at 5 µM) | 
Cc1ccc(/C=C/[N+](=O)[O-])cc1 [compound 10] | ++ (++ indicates displacing effect at 5 µM) | 
O=[N+]([O-])/C=C/c1cccc(Br)c1 [compound 11] | + (+ at 20 µM) | 
O=[N+]([O-])/C=C/c1cccc(Cl)c1 [compound 12] | + (+ at 20 µM) | 
O=[N+]([O-])/C=C/c1ccc(F)cc1 [compound 14] | ++ (++ indicates displacing effect at 5 µM) | 
C/C(=C\c1ccc(Br)cc1)[N+](=O)[O-] [compound 16] | ++ (++ indicates displacing effect at 5 µM) | 
O=[N+]([O-])/C=C/c1ccco1 [compound 17] | ++ (++ indicates displacing effect at 5 µM) | 
O=[N+]([O-])/C=C/c1cccnc1 [compound 18] | + (+ at 20 µM) | 
O=[N+]([O-])/C=C/c1c[nH]c2ccccc12 [compound 19] | - | 
O=[N+]([O-])/C=C/c1cn(-c2ccccc2)c2ccccc12 [compound 20] | - | 
O=C/C=C/c1ccc(Cl)cc1 [compound 22] | - | 
O=C(O)/C=C/c1cc(Br)cs1 [compound 24] | - | 
(E)-ethyl 6-(4-(2-nitrovinyl)phenoxy)hexanoate [FootLocker 5] |  | disruption of protein-protein interactions at focal adhesion site (FAK/Paxillin): efficiently disrupt protein-protein interactions at focal adhesion site
